Where two headings read alike, the source gives them in different places.
Tests used:
[1] = system: U 251; assay: in vitro CNS cancer cell growth inhibition (NCI screen)
[2] = system: KB cells; assay: in vitro cytotoxicity screening against KB cells in culture; assay type: cell-based; conditions: Homo sapiens, calculated from 2 data points across 50% inhibition in cell growth, read-out: ED50 (the source's name)
Protocol: Compound 5 was assayed for in vitro cytotoxicity against KB cells in culture, following the protocol of Monks. The KB cell line was obtained from the American Type Culture Collection, Rockville, MD, and cells were adapted to grow in antibiotic-free RPMI-1640 medium supplemented with […] calf serum.
The ED50 value was calculated mathematically from 2 data points across 50% inhibition in cell growth.

[3] = system: OVCAR-3; assay: in vitro ovarian cancer cell growth inhibition (NCI screen)
[4] = system: OVCAR-5; assay: as above
[5] = system: human tumor cell lines; assay type: cell-based; conditions: for GI50: Homo sapiens
[6] = system: OVCAR-8; assay: in vitro ovarian cancer cell growth inhibition (NCI screen)
[7] = system: HCT-116; assay: in vitro colon cancer cell growth inhibition (NCI screen)
[8] = system: KM 12; assay: as above
[9] = system: HOP-92; assay: in vitro non-small cell lung cancer cell growth inhibition (NCI screen)
[10] = system: SW 620; assay: in vitro colon cancer cell growth inhibition (NCI screen)
[11] = system: OVCAR-4; assay: in vitro ovarian cancer cell growth inhibition (NCI screen); conditions: OVACR-4
[12] = system: SF-268; assay: in vitro CNS cancer cell growth inhibition (NCI screen)
[13] = system: NCI-H522; assay: in vitro non-small cell lung cancer cell growth inhibition (NCI screen)
[14] = system: NCI-H23; assay: as above
[15] = system: MCF-7; assay: in vitro breast cancer cell growth inhibition (NCI screen)
[16] = system: COLO-205; assay: in vitro colon cancer cell growth inhibition (NCI screen)
[17] = system: SK-OV-3; assay: in vitro ovarian cancer cell growth inhibition (NCI screen)
[18] = system: HS 578T; assay: in vitro breast cancer cell growth inhibition (NCI screen)
[19] = system: 786-0; assay: in vitro renal cancer cell growth inhibition (NCI screen)
[20] = system: RXF-393; assay: as above
[21] = system: UACC-62; assay: in vitro melanoma cell growth inhibition (NCI screen)
[22] = system: SF-295; assay: in vitro CNS cancer cell growth inhibition (NCI screen)
[23] = system: SNB-75; assay: as above
[24] = cancer cell panel, general / most cell lines, read-out: logGI50 values in the cancer cell line panel (converted)

CCn1c(C)nc2c1C(=O)c1ccccc1C2=O [Compound 5, 1-ethyl-2-methylnaphth-[2,3-d]imidazole-4,9-dione]
cytotoxicity log GI50 [1]: -5.72 M
IC50 [2]: < 0.4 µg/mL
cytotoxicity log GI50 [3]: -7.30 M
cytotoxicity log GI50 [4]: -6.11 M
GI50 ([5]; OVCAR-3, -4, -5, and -8 ovarian cancer cell lines, read-out: logGI50 values (range over cell lines) (converted)): 50.1 to 794 nM
GI50 [5, 24]: 100 to 1000 nM
cytotoxicity against tumor cells (in words) ([5]; cancer cell line panel): most active naphth[2,3-d]imidazole-4,9-dione derivative
cytotoxicity log GI50 [6]: -6.31 M
cytotoxicity log GI50 [7]: -5.91 M
cytotoxicity log GI50 [8]: -5.76 M
cytotoxicity log GI50 [9]: -5.79 M
cytotoxicity log GI50 [10]: -6.17 M
cytotoxicity log GI50 [11]: -6.49 M
cytotoxicity log GI50 [12]: -6.48 M
cytotoxicity log GI50 [13]: -6.62 M
cytotoxicity log GI50 [14]: -5.81 M
cytotoxicity log GI50 [15]: -6.17 M
cytotoxicity log GI50 [16]: -6.45 M

CCn1c(-c2cc(OC)cc(OC)c2)nc2c1C(=O)c1ccccc1C2=O [Compound 28]
cytotoxicity log GI50 [17]: -5.41 M
GI50 [5, 24]: ~10000 nM
cytotoxicity log GI50 [18]: -4.44 M
cytotoxicity log GI50 [19]: -4.34 M
cytotoxicity log GI50 [20]: -4.86 M
cytotoxicity log GI50 [13]: -5.19 M
cytotoxicity log GI50 [21]: -4.69 M
cytotoxicity log GI50 [22]: -4.53 M
cytotoxicity log GI50 [23]: -4.65 M

— patent US5789431A, “Naphthoquinone antitumor compound and method” (The University of North Carolina at Chapel Hill, priority 1996, dated 1998)
